According to PubChem BioAssay AID2060910 (Molecular Pharmacology Branch, DTP, NCI, 2025):

System: 242566-281-R-J2-PDC complex spheroid viability
Assay: Anticancer human tumor 242566-281-R-J2-PDC patient-derived pancreatic carcinoma cell line growth inhibition [RAS]
Settings: for IC50: curve of first compound; for viability, T/C: stronger effect = lower value
In short: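 Tumour cells grown as complex spheroids with HUVEC endothelial cells and mesenchymal stem cells, treated with RAS pathway inhibitor combinations. Each agent spans half-log steps from near clinical Cmax, or 10 microM where Cmax is unknown.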

[1] = second compound 0.00316 µM, first compound 0.0316 µM
[2] = second compound 0.00316 µM, first compound 0.1 µM
[3] = second compound 0.01 µM, first compound 0.0316 µM
[4] = second compound 0.01 µM, first compound 0.1 µM
[5] = second compound 0.0316 µM, first compound 0.0316 µM
[6] = second compound 0.0316 µM, first compound 0.1 µM
[7] = second compound 0.1 µM, first compound 0.0316 µM
[8] = second compound 0.1 µM, first compound 0.1 µM
[9] = second compound 0.316 µM, first compound 0.0316 µM
[10] = second compound 0.316 µM, first compound 0.1 µM
[11] = second compound 1 µM, first compound 0.0316 µM
[12] = second compound 1 µM, first compound 0.1 µM
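Also: spheroids exposed to compound for 7 days before readout.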
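For viability, T/C in this document: 100% = DMSO vehicle control wells.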

In the case of `CC(C)n1nc(-c2ccc3oc(N)nc3c2)c2c(N)ncnc21` + C=CC(=O)N1CCN(c2nc(OCC3CCCN3C)nc3c(F)c(-c4nc(N)cc(C)c4C(F)(F)F)c(Cl)cc23)C(C)C1, the IC50 (second compound 0.00316 µM) is reported as > 100 nM, the IC50 (second compound 0.01 µM) is reported as > 100 nM and the IC50 (second compound 0.0316 µM) is reported as > 100 nM. The IC50 (second compound 0.1 µM) was > 100 nM, the IC50 (second compound 0.316 µM) was > 100 nM and the IC50 (second compound 1 µM) was > 100 nM. For the same compound, the viability, T/C (second compound 0.00316 µM, first compound 0.000316 µM) was 93.1%, the viability, T/C (second compound 0.00316 µM, first compound 0.001 µM) was 154% and the viability, T/C (second compound 0.00316 µM, first compound 0.00316 µM) was 91.4%. It also gave a viability, T/C (second compound 0.00316 µM, first compound 0.01 µM) of 78.9%, a viability, T/C [1] of 58.5% and a viability, T/C [2] of 53.8%. The viability, T/C (second compound 0.01 µM, first compound 0.000316 µM) was 111%, the viability, T/C (second compound 0.01 µM, first compound 0.001 µM) was 150% and the viability, T/C (second compound 0.01 µM, first compound 0.00316 µM) was 94.9%. For the same compound, the viability, T/C (second compound 0.01 µM, first compound 0.01 µM) was 72.7%, the viability, T/C [3] was 55.5% and the viability, T/C [4] was 53.6%. It also gave a viability, T/C (second compound 0.0316 µM, first compound 0.000316 µM) of 101%, a viability, T/C (second compound 0.0316 µM, first compound 0.001 µM) of 138% and a viability, T/C (second compound 0.0316 µM, first compound 0.00316 µM) of 83.4%. It also gave a viability, T/C (second compound 0.0316 µM, first compound 0.01 µM) of 79.2%, a viability, T/C [5] of 67.1% and a viability, T/C [6] of 54.6%. It also gave a viability, T/C (second compound 0.1 µM, first compound 0.000316 µM) of 98.5%, a viability, T/C (second compound 0.1 µM, first compound 0.001 µM) of 111% and a viability, T/C (second compound 0.1 µM, first compound 0.00316 µM) of 89.9%. For the same compound, the viability, T/C (second compound 0.1 µM, first compound 0.01 µM) was 84.3%, the viability, T/C [7] was 62% and the viability, T/C [8] was 55.7%. It also gave a viability, T/C (second compound 0.316 µM, first compound 0.000316 µM) of 109%, a viability, T/C (second compound 0.316 µM, first compound 0.001 µM) of 107% and a viability, T/C (second compound 0.316 µM, first compound 0.00316 µM) of 107%. The viability, T/C (second compound 0.316 µM, first compound 0.01 µM) was 81.5%, the viability, T/C [9] was 69.5% and the viability, T/C [10] was 55.3%. The viability, T/C (second compound 1 µM, first compound 0.000316 µM) was 109%, the viability, T/C (second compound 1 µM, first compound 0.001 µM) was 140% and the viability, T/C (second compound 1 µM, first compound 0.00316 µM) was 86.4%. The viability, T/C (second compound 1 µM, first compound 0.01 µM) was 88.3%, the viability, T/C [11] was 75.2% and the viability, T/C [12] was 55.7%.

`CC(Nc1ccc2c(c1)OCCn1cc(N3C(=O)OCC3C(F)F)nc1-2)C(N)=O` (centres undefined) + C=CC(=O)N1CCN(c2nc(OCC3CCCN3C)nc3c(F)c(-c4nc(N)cc(C)c4C(F)(F)F)c(Cl)cc23)C(C)C1 showed an IC50 (second compound 0.00316 µM) of 753 nM, an IC50 (second compound 0.01 µM) of 926 nM and an IC50 (second compound 0.0316 µM) of 1710 nM. It also gave an IC50 (second compound 0.1 µM) of 627 nM, an IC50 (second compound 0.316 µM) of 1430 nM and an IC50 (second compound 1 µM) of 1290 nM. It also gave a viability, T/C [1] of 86.4%, a viability, T/C [2] of 113% and a viability, T/C (second compound 0.00316 µM, first compound 0.316 µM) of 76.7%. It also gave a viability, T/C (second compound 0.00316 µM, first compound 1 µM) of 42.7%, a viability, T/C (second compound 0.00316 µM, first compound 3.16 µM) of 34.7% and a viability, T/C (second compound 0.00316 µM, first compound 10 µM) of 27.4%. The viability, T/C [3] was 105%, the viability, T/C [4] was 115% and the viability, T/C (second compound 0.01 µM, first compound 0.316 µM) was 80.3%. It also gave a viability, T/C (second compound 0.01 µM, first compound 1 µM) of 48.3%, a viability, T/C (second compound 0.01 µM, first compound 3.16 µM) of 37.1% and a viability, T/C (second compound 0.01 µM, first compound 10 µM) of 24.4%. The viability, T/C [5] was 96.1%, the viability, T/C [6] was 102% and the viability, T/C (second compound 0.0316 µM, first compound 0.316 µM) was 76.1%. It also gave a viability, T/C (second compound 0.0316 µM, first compound 1 µM) of 63.4%, a viability, T/C (second compound 0.0316 µM, first compound 3.16 µM) of 36.6% and a viability, T/C (second compound 0.0316 µM, first compound 10 µM) of 30.9%. It also gave a viability, T/C [7] of 103%, a viability, T/C [8] of 105% and a viability, T/C (second compound 0.1 µM, first compound 0.316 µM) of 66%. It also gave a viability, T/C (second compound 0.1 µM, first compound 1 µM) of 41.7%, a viability, T/C (second compound 0.1 µM, first compound 3.16 µM) of 37.2% and a viability, T/C (second compound 0.1 µM, first compound 10 µM) of 27.8%. It also gave a viability, T/C [9] of 89.8%, a viability, T/C [10] of 91.2% and a viability, T/C (second compound 0.316 µM, first compound 0.316 µM) of 72%. The viability, T/C (second compound 0.316 µM, first compound 1 µM) was 55.3%, the viability, T/C (second compound 0.316 µM, first compound 3.16 µM) was 40% and the viability, T/C (second compound 0.316 µM, first compound 10 µM) was 30.6%. For the same compound, the viability, T/C [11] was 104%, the viability, T/C [12] was 117% and the viability, T/C (second compound 1 µM, first compound 0.316 µM) was 85.9%. The viability, T/C (second compound 1 µM, first compound 1 µM) was 53.4%, the viability, T/C (second compound 1 µM, first compound 3.16 µM) was 47% and the viability, T/C (second compound 1 µM, first compound 10 µM) was 35.1%.
